Source: patent publication US20080287430A1, “Furan Compounds Useful As Ep1 Receptor Antagonists” (priority 2005, published 2008)
Where a name gives a salt, the structure may show the parent alone.

Legend:
human EP1 receptor [1] = target: T1, human EP1 receptor (Homo sapiens, UniProt P34995); test: human EP1 calcium mobilisation assay; type: cell-based; conditions: human EP1, PGE2-induced calcium mobilisation in CHO-K1 cells; free bases or sodium salts; averages of a number of experiments; read-out: functional pKi value (converted)
T1 construct: expressed in transfected cells; host or cells: CHO-K1
T1 sequence (P34995 1-402): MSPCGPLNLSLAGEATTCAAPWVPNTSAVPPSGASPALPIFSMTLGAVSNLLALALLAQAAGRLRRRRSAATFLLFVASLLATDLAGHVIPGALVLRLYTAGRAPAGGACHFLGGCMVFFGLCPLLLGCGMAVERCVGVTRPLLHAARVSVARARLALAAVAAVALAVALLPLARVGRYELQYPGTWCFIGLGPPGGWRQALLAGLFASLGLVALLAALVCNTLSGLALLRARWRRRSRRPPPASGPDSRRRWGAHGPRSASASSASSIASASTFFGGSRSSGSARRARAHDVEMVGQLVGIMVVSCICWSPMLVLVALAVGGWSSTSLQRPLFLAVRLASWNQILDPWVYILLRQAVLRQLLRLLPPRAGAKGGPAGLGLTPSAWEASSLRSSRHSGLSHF
How it was run: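 CHO-K1 cells stably expressing human EP1, loaded with Fluo-4 after 24 h at 37° C; compounds added before PGE2 challenge. Inhibition of PGE2-induced [Ca2+]i rise read by FLIPR fluorescence; pIC50 from curve fitting of half-maximal inhibition.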

human EP1 receptor [2] = target: T1, human EP1 receptor; test: Binding assay for the human prostanoid EP1 receptor (competition with [3H]-PGE2); conditions: binding to human EP1 receptor, [3H]-PGE2 competition, CHO-K1 cell membranes; averages of a number of experiments; read-out: pIC50 value (converted)
Method: Competition assay using [^3H]-PGE2.
Compound potencies are determined using a radioligand binding assay. In this assay compound potencies are determined from their ability to compete with tritiated prostaglandin E2 ([^3H]-PGE2) for binding to the human EP1 receptor.
This assay utilises Chinese hamster ovary-K1 (CHO-K1) cells into which a stable vector containing the EP1 cDNA has previously been transfected. Cells are cultured in suitable flasks containing culture medium such as DMEM:F-12 supplemented with 10% v/v foetal calf serum, 2 mM L-glutamine, 0.25 mg/ml geneticin, 10 μg/ml puromycin and 10 μM indomethacin.
Cells are detached from the culture flasks by incubation in calcium and magnesium free phosphate buffered saline containing 1 mM disodium ethylenediaminetetraacetic acid (Na2EDTA) and 10 μM indomethacin for 5 min. The cells are isolated by centrifugation at 250×g for 5 mins and suspended in an ice cold buffer such as 50 mM Tris, 1 mM Na2EDTA, 140 mM NaCl, 10 μM indomethacin (pH 7.4). The cells are homogenised using a Polytron tissue disrupter (2×10 s burst at full setting), centrifuged at 48,000×g for 20 mins and the pellet containing the membrane fraction is washed (optional) three times by suspension and centrifugation at 48,000×g for 20 mins. The final membrane pellet is suspended in an assay buffer such as 10 mM 2-[N-morpholino]ethanesulphonic acid, 1 mM Na2EDTA, 10 mM MgCl2 (pH 6). Aliquots are frozen at −80° C. until required.
For the binding assay the cell membranes, competing compounds and [^3H]-PGE2 (3 nM final assay concentration) are incubated in a final volume of 100 μl for 30 min at 30° C. All reagents are prepared in assay buffer. Reactions are terminated by rapid vacuum filtration over GF/B filters using a Brandell cell harvester. The filters are washed with ice cold assay buffer, dried and the radioactivity retained on the filters is measured by liquid scintillation counting in Packard TopCount scintillation counter.
The data are analysed using non linear curve fitting techniques to determine the concentration of compound producing 50% inhibition of specific binding (IC50).

Compound | Ki (human EP1 receptor [1]) [nM] | IC50 (human EP1 receptor [2]) [nM]
CC(C)COc1ccc(Cl)cc1Cc1ccc(-c2nc3ccc(CN4CCCC4)cc3[nH]2)o1 [Example 143, 2-[5-({5-Chloro-2-[(2-methylpropyl)oxy]-phenyl}methyl)-2-furanyl]-5-(1-pyrrolidinylmethyl)-1H-benzimidazoledihydrochloride] | < 1000 | ≤ 10
CC(C)COc1ccc(Cl)cc1Cc1ccc(-c2nc3c(F)cccc3[nH]2)o1 [Example 108, 2-[5-({5-Chloro-2-[(2-methylpropyl)oxy]-phenyl}methyl)-2-furanyl]-4-fluoro-1H-benzimidazole] | < 1000 | ≤ 10
CC(C)COc1ccc(Cl)cc1Cc1ccc(-c2nc3ccccc3[nH]2)o1 [Example 98, 2-[5-({5-Chloro-2-[(2-methylpropyl)oxy]phenyl}methyl)-2-furanyl]-1H-benzimidazole] | ≤ 10 | ≤ 10
CC(C)COc1ccc(Cl)cc1Cc1ccc(-c2nc3ccc(N4CCOCC4)cc3[nH]2)o1 [Example 112, 2-[5-({5-Chloro-2-[(2-methylpropyl)oxy]-phenyl}methyl)-2-furanyl]-5-(4-morpholinyl)-1H-benzimidazoledihydrochloride] | < 1000 | ≤ 10
COc1nccc2[nH]c(-c3ccc(Cc4cc(Cl)ccc4OCC(C)C)o3)nc12 [Example 104, 2-[5-({5-Chloro-2-[(2-methylpropyl)oxy]-phenyl}methyl)-2-furanyl]-4-(methyloxy)-1H-imidazo[4,5-c]pyridine] | ≤ 10 | ≤ 10
CC(C)COc1ccc(Cl)cc1Cc1ccc(-c2nc3ccc(CN4CCN(C)CC4)cc3[nH]2)o1 [Example 145, 2-[5-({5-Chloro-2-[(2-methylpropyl)oxy]-phenyl}methyl)-2-furanyl]-5-[(4-methyl-1-piperazinyl)methyl]-1H-benzimidazoletrihydrochloride] | < 1000 | ≤ 10
CC(C)COc1ccc(Cl)cc1Cc1ccc(-c2nc3nccnc3[nH]2)o1 [Example 106, 2-[5-({5-Chloro-2-[(2-methylpropyl)oxy]-phenyl}methyl)-2-furanyl]-1H-imidazo[4,5-b]pyrazine] | ≤ 10 | ≤ 10
CC(C)COc1ccc(Cl)cc1Cc1ccc(-c2nc3ccc(CN(C)C(C)C)cc3[nH]2)o1 [Example 151, N-({2-[5-({5-Chloro-2-[(2-methylpropyl)oxy]-phenyl}methyl)-2-furanyl]-1H-benzimidazol-5-yl}methyl)-N-methyl-2-propanaminedihydrochloride] | < 1000 | ≤ 10
CC(C)COc1ccc(Cl)cc1Cc1ccc(-c2nc3ccc(CN4CCCCC4)cc3[nH]2)o1 [Example 147, 2-[5-({5-Chloro-2-[(2-methylpropyl)oxy]-phenyl}methyl)-2-furanyl]-5-(1-piperidinylmethyl)-1H-benzimidazoledihydrochloride] | < 1000 | ≤ 10
CCN1CCN(Cc2ccc3nc(-c4ccc(Cc5cc(Cl)ccc5OCC(C)C)o4)[nH]c3c2)CC1 [Example 146, 2-[5-({5-Chloro-2-[(2-methylpropyl)oxy]-phenyl}methyl)-2-furanyl]-5-[(4-ethyl-1-piperazinyl)methyl]-1H-benzimidazoletrihydrochloride] | < 1000 | ≤ 10
CC(C)COc1ccc(Cl)cc1Cc1ccc(-c2nc3cc4cnn(C)c4cc3[nH]2)o1 [Example 107, 6-[5-({5-Chloro-2-[(2-methylpropyl)oxy]-phenyl}methyl)-2-furanyl]-1-methyl-1,5-dihydroimidazo[4,5-f]indazole] | < 1000 | ≤ 10
CC(C)COc1ccc(Cl)cc1Cc1ccc(-c2nc3ccc(CN(C)CCC#N)cc3[nH]2)o1 [Example 149, 3-[({2-[5-({5-Chloro-2-[(2-methylpropyl)oxy]-phenyl}methyl)-2-furanyl]-1H-benzimidazol-5-yl}methyl)(methyl)-amino]propanenitriledihydrochloride] | < 1000 | ≤ 10
CC(C)COc1ccc(Cl)cc1Cc1ccc(-c2nc3ccc(CN(C)C)cc3[nH]2)o1 [Example 142, ({2-[5-({5-Chloro-2-[(2-methylpropyl)oxy]-phenyl}methyl)-2-furanyl]-1H-benzimidazol-5-yl}methyl)dimethyl-amine dihydrochloride] | < 1000 | ≤ 10
CC(C)COc1ccc(Cl)cc1Cc1ccc(-c2nc3ccc(CCN4CCN(C)CC4)cc3[nH]2)o1 [Example 162, 2-[5-({5-Chloro-2-[(2-methylpropyl)oxy]-phenyl}methyl)-2-furanyl]-5-[2-(4-methyl-1-piperazinyl)ethyl]-1H-benzimidazoletrihydrochloride] | < 1000 | ≤ 10
CC(C)COc1ccc(Cl)cc1Cc1ccc(-c2nc3ccc(CNCCO)cc3[nH]2)o1 [Example 156, 2-[({2-[5-({5-Chloro-2-[(2-methylpropyl)oxy]-phenyl}methyl)-2-furanyl]-1H-benzimidazol-5-yl}methyl)amino]-ethanol] | < 1000 | ≤ 10

Now from value to compound:

Ki (human EP1 receptor [1]) [nM] | IC50 (human EP1 receptor [2]) [nM] | Compound
≤ 10 | ≤ 10 | O=C(O)c1ccc(Cc2cc(Cl)ccc2OCc2ccc(Cl)cc2F)o1 [Example 23, Sodium 5-[(5-chloro-2-{[(4-chloro-2-fluorophenyl)methyl]oxy}phenyl)methyl]-2-furancarboxylate]
≤ 10 | ≤ 10 | O=C(O)c1ccc(Cc2cc(Cl)ccc2OCc2ccccc2)o1 [Example 18, Sodium 5-({5-chloro-2-[(phenylmethyl)oxy]phenyl}methyl)-2-furancarboxylate]
< 1000 | ≤ 10 | Clc1ccc(OCc2ccccc2)c(Cc2ccc(-c3nc4ccccc4[nH]3)o2)c1 [Example 99, 2-[5-({5-Chloro-2-[(phenylmethyl)oxy]phenyl}methyl)-2-furanyl]-1H-benzimidazole]
≤ 10 | ≤ 10 | O=C(O)c1ccc(Cc2cc(Cl)ccc2OC2CCCC2)o1 [Example 5, Sodium 5-{[5-chloro-2-(cyclopentyloxy)phenyl]methyl}-2-furancarboxylate]
≤ 10 | ≤ 10 | CC(C)COc1ccc(Cl)cc1Cc1ccc(C(=O)NCc2ccccc2)o1 [Example 57, 5-({5-Chloro-2-[(2-methylpropyl)oxy]-phenyl}methyl)-N-(phenylmethyl)-2-furancarboxamide]
≤ 10 | ≤ 10 | O=C(O)c1ccc(Cc2cc(Cl)ccc2OCc2ccc(F)cc2)o1 [Example 21, Sodium 5-[(5-chloro-2-{[(4-fluorophenyl)methyl]oxy}phenyl)methyl]-2-furancarboxylate]
< 1000 | ≤ 10 | O=C(O)c1ccc(Cc2cc(Cl)ccc2OCc2ccc(F)cc2F)o1 [Example 19, Sodium 5-[(5-chloro-2-{[(2,4-difluorophenyl)methyl]oxy}phenyl)methyl]-2-furancarboxylate]
≤ 10 | ≤ 10 | O=C(NS(=O)(=O)c1ccccc1)c1ccc(Cc2cc(Cl)ccc2OCc2ccc(F)cc2F)o1 [Example 35, 5-[(5-Chloro-2-{[(2,4-difluorophenyl)methyl]oxy}phenyl)methyl]-N-(phenylsulfonyl)-2-furancarboxamide]
< 1000 | ≤ 10 | O=C(Nc1c(F)cccc1F)c1ccc(Cc2cc(Cl)ccc2OCc2ccc(Cl)cc2F)o1 [Example 84, 5-[(5-Chloro-2-{[(4-chloro-2-fluorophenyl)methyl]oxy}-phenyl)methyl]-N-(2,6-difluorophenyl)-2-furancarboxamide]
≤ 10 | ≤ 10 | O=C(O)c1ccc(Cc2cc(Cl)ccc2OCc2ccc(F)cc2Cl)o1 [Example 22, Sodium 5-[(5-chloro-2-{[(2-chloro-4-fluorophenyl)methyl]oxy}phenyl)methyl]-2-furancarboxylate]
